# According to paper PMC3834731 (International journal of antimicrobial agents, 2013):
# Marks after values point to notes of the source that are not given here.
# How the values were obtained:
# Brucella suis 1330 = format: cell-based
# [1] = tested on: B. suis in J774A.1 murine macrophage-like cells; format: cell-based, Brucella suis
# Brucella melitensis 16M = format: cell-based
# Brucella abortus 2308 = format: cell-based
substance,measurement,setting,value
H-KFFKFFKFFK-O-ttcatgcctgt-NH2 [polA],Log CFU/100 μL/well,Brucella suis 1330,0.54 ± 0.09 Log CFU/100 μL/well
same,inhibition of growth of B. suis in culture (in words),Brucella suis 1330,significantly inhibited the growth
same,Log CFU,[1],2.27 ± 0.69 Log CFU
same,Log reduction,[1],1.01 ^*
same,inhibition of intracellular B. suis (in words),[1],showed significant inhibition
same,effectiveness against B. melitensis 16M (in words),Brucella melitensis 16M,effective
same,effectiveness against B. abortus 2308 (in words),Brucella abortus 2308,effective
H-KFFKFFKFFK-O-cattacagatt-NH2 [dnaG],Log CFU/100 μL/well,Brucella suis 1330,2.91 ± 0.02 Log CFU/100 μL/well
same,Log reduction,Brucella suis 1330,0.15
same,inhibition of growth of B. suis in culture (in words),Brucella suis 1330,not in Brucella cultures
same,Log CFU,[1],1.78 ± 0.56 Log CFU
same,Log reduction,[1],1.50 ^*
same,inhibition of intracellular B. suis (in words),[1],showed significant inhibition
H-KFFKFFKFFK-O-catcgtcgctc –NH2 [rpoB],Log CFU/100 μL/well,Brucella suis 1330,0 ^* Log CFU/100 μL/well
same,Log CFU/mL,Brucella suis 1330,0 Log CFU/mL
same,inhibition of growth of B. suis in culture (in words),Brucella suis 1330,significantly inhibited the growth
"H-KFFKFFKFFK-O-catactcttcct-NH2 [Anti-lacZ, reference compound]",Log CFU/100 μL/well,Brucella suis 1330,2.83 ± 0.13 Log CFU/100 μL/well
same,Log reduction,Brucella suis 1330,0.23
same,inhibition of growth of B. suis in culture (in words),Brucella suis 1330,did not inhibit the growth
same,Log CFU,[1],3.45 ± 0.31 Log CFU
same,Log reduction,[1],+0.17
H-KFFKFFKFFK-O-catatcgtcgga-NH2 [gyrA],Log CFU/100 μL/well,Brucella suis 1330,3.92 ± 0.06 Log CFU/100 μL/well
same,Log reduction,Brucella suis 1330,0.23
same,inhibition of growth of B. suis in culture (in words),Brucella suis 1330,not in Brucella cultures
same,Log CFU,[1],2.47 ± 0.51 Log CFU
same,Log reduction,[1],0.81 ^*
same,inhibition of intracellular B. suis (in words),[1],showed significant inhibition
H-KFFKFFKFFK-O-catttttcgtct-NH2 [asd],Log CFU/100 μL/well,Brucella suis 1330,3.27 ± 0.09 Log CFU/100 μL/well
same,inhibition of growth of B. suis in culture (in words),Brucella suis 1330,not in Brucella cultures
same,Log CFU,[1],1.84 ± 0.50 Log CFU
same,Log reduction,[1],1.44 ^*
same,inhibition of intracellular B. suis (in words),[1],showed significant inhibition
H-KFFKFFKFFK-O-cattgtgtcgc-NH2 [tsf],Log CFU/100 μL/well,Brucella suis 1330,1.02 ± 0.92 Log CFU/100 μL/well
same,Log reduction,Brucella suis 1330,2.04 ^*
same,inhibition of growth of B. suis in culture (in words),Brucella suis 1330,significantly inhibited the growth
H-KFFKFFKFFK-O-gctcatttcgc-NH2 [kdtA],Log CFU/100 μL/well,Brucella suis 1330,1.56 ± 1.10 Log CFU/100 μL/well
same,Log reduction,Brucella suis 1330,1.50 ^*
same,inhibition of growth of B. suis in culture (in words),Brucella suis 1330,significantly inhibited the growth
H-KFFKFFKFFK-O-ctcatgtcgg-NH2 [acpP],Log CFU/100 μL/well,Brucella suis 1330,3.05 ± 0.10 Log CFU/100 μL/well
same,Log reduction,Brucella suis 1330,0.01
same,Log CFU,[1],3.37 ± 0.18 Log CFU
same,Log reduction,[1],+0.09
